Test: Static partitioning test for DME in brine and oil
Assay type: physicochemical
Settings: room temperature, >12 hours equilibration, 150 psi
Text: To measure partitioning of the miscible solvent in contact with oil and brine for a particular chemical concentration, salinity of aqueous phase, oil type, temperature, and pressure.
Load accumulator #1 with brine and accumulator #2 with oil. Apply vacuum to sapphire cell #1 and sapphire cell #2 on the loading side of the piston. Fill the opposite side with water or lab oil. Prepare loading loop with a known volume with liquid DME at room temperature (pressure >100 psi) to ensure a target concentration of DME when injected. Connect loading loop to sapphire cell #1 (vacuum side) and to accumulator #1. Connect the opposite side of the sapphire (water side) to BPR to keep pressure inside the cell at 150 psi. Then, displace DME from the loop with brine and inject into the sapphire cell #1. Isolate and disconnect the sapphire cell #1. Then, rock the cell until liquid DME and brine get properly mixed and homogenized. Equilibrate aqueous mix for a couple of hours. Connect the accumulator #2 with the sapphire cell #2, and the sapphire cell to the BPR. Then, inject oil into the sapphire cell #2. The volume of the injected oil is the one for the desired aqueous to oil ratio (i.e. 50/50 aqueous to oil by volume). Connect the sapphire cell #1 (DME in aqueous side) to the sapphire cell #2 (oil side) and inject DME in aqueous side to cell #2. The volume of the injected aqueous phase is the one for the desired aqueous to oil ratio. The pressure inside the sapphire cell # is controlled by BPR at 150 psi. Isolate and disconnect the sapphire cell #2. Then, rock the cell until liquid aqueous and oil get properly mixed. Let the cell equilibrate for 12 hours at room temperature (˜70° F.). Prepare a solution of 1:1 by volume of deionized water and methanol. Collect a sample of aqueous phase (DME in brine) from cell #2 and mix it with methanol solution in a volumetric proportion of 1:1. Measure DME concentration in aqueous mixture from previous step via gas chromatography (GC). Then, calculate partitioning of DME in between brine and oil phase, this is the partitioning coefficient.
KDME=DME partitioning coefficient; CDME,aq=mass fraction of DME in aqueous phase at equilibrium; and CDME,oil=mass fraction of DME in oleic phase at equilibrium.
Alternatively, to measuring DME concentration via GC and after isolating and disconnecting sapphire cell #2, both aqueous phase and oleic phase could be separated, and then individually taken to a PVT cell at 1 atm and 70° F. After DME evolves from each phase as gas, amounts of evolved DME could be measured and partitioning coefficient calculated.

DME partition coefficient (0.5% DME + Methanol, Volatile Oil, salinity 115,000 ppm): 1.13 | DME partition coefficient (0.5% DME, Volatile Oil, salinity 0 - DI water): 0.81 | DME partition coefficient (0.5% DME, Volatile Oil, salinity 103,000 ppm): 1.15 | DME partition coefficient (0.5% DME, Volatile Oil, salinity 150,000 ppm): 1.27 | DME partition coefficient (0.5% DME, Volatile Oil, salinity 300,000 ppm): 1.26 | DME partition coefficient (1% DME + Methanol, Black Oil, salinity 115,000 ppm): 1.87 | DME partition coefficient (1% DME + Methanol, Volatile Oil, salinity 115,000 ppm): 2.4
SMILES: COC [DME, dimethyl ether]
